From patent publication US11826351B2, “Compounds useful as kinase inhibitors” (Loxo Oncology, Inc., priority 2015, dated 2023)
Read-outs that look alike come from different tables or passages of the source.

Legend:
[1] = target: T1, Recombinant EGFR (Homo sapiens, UniProt P00533); test: EGFR binding affinity (LanthaScreen TR-FRET); conditions: Kinase Tracer 199, 5 h incubation
T1 construct: purchased Invitrogen
Description: EGFR binding affinity was determined using a time-resolved fluorescence resonance energy transfer (TR-FRET) methodology. […] Recombinant EGFR and all LanthaScreen™ components were purchased from Invitrogen. Measurements were performed in a reaction volume of 30 μL using half-area 96-well assay plates. […] Binding affinity was determined for each compound by measuring TR-FRET signal at various concentrations of compound and plotting the relative fluorescence units against the inhibitor concentration to estimate the IC50 from log[Inhibitor] vs response using the Variable Slope model in Graphpad prism from Graphpad software (San Diego, Calif.).

[2] = system: OCI-Ly10 human DLBCL cells; test: OCI-Ly10 anti-proliferative activity (Resazurin); assay type: cell-based; conditions: OCI-Ly10 cells, 72 h compound treatment, Resazurin, read-out: Proliferation Assay OCI-Ly10-20% FBS
Description: Compounds were assayed for effects on the growth of OCI-Ly10 human DLBCL cells that are dependent on NFκB signalling. […] Cells were then plated at 7.5×10^3 cells per well in 96-well plates in varying concentrations of compound and incubated for 72 h at 37° C. An additional plate of cells to be used as the Day 0 read was seeded without compound addition, Resazurin was added to each well, incubated for 5 h and the fluorescence measured at 590 nm. After 72 h of compound treatment, Resazurin was added to each well of the compound treated plates, incubated for 5 h and the fluorescence measured at 590 nm. The IC50 was then calculated by subtracting the average Day 0 value from each well value from the treated plates, each treatment was then calculated as a percentage of the DMSO control and the percentages plotted against the inhibitor concentration to estimate the IC50 from log[Inhibitor] vs response using the Variable Slope model in Graphpad prism from Graphpad software (San Diego, Calif.).

[3] = target: T2, Recombinant BTK^WT kinase (Homo sapiens, UniProt Q06187); test: BTK WT binding affinity (LanthaScreen TR-FRET); conditions: Kinase Tracer 236, 5 h incubation
T2 construct: purchased Invitrogen
T2 sequence (Q06187 whole entry): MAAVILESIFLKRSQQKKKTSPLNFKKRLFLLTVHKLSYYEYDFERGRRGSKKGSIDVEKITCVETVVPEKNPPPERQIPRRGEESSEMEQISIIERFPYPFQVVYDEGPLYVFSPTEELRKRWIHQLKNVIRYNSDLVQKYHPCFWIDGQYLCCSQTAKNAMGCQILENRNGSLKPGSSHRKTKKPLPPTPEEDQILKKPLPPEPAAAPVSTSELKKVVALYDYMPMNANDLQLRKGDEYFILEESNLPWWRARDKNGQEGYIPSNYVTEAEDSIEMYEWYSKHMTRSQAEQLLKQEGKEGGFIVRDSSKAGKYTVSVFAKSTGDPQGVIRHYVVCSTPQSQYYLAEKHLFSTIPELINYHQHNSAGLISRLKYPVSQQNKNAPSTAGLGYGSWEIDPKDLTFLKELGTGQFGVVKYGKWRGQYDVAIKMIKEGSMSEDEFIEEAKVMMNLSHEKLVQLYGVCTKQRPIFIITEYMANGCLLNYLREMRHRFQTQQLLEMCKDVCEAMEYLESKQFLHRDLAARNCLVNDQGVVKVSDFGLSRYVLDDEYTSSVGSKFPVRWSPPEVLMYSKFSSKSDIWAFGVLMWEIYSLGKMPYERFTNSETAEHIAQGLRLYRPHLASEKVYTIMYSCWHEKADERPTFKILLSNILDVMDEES
Description: BTK^WT binding affinity of each compound tested was determined using a time-resolved fluorescence resonance energy transfer (TR-FRET) methodology. 2.5 nM Recombinant BTK^WT kinase, varying concentrations of inhibitor, 2 nM LanthaScreen™ Eu anti-His Antibody and 15 nM Kinase Tracer 236 was incubated in 1× LanthaScreen™ Kinase Buffer A for 5 h. Recombinant BTK kinase and all LanthaScreen™ components were purchased from Invitrogen. Measurements were performed in a reaction volume of 30 μL using half-area 96-well assay plates. The TR-FRET signal was read on a plate reader with an excitation wavelength of 340 nm and detection wavelengths of 615 and 665 nm. Binding affinity was determined for each compound by measuring TR-FRET signal at various concentrations of compound and plotting the relative fluorescence units against the inhibitor concentration to estimate the IC50 from log[Inhibitor] vs response using the Variable Slope model in Graphpad prism from Graphpad software (San Diego, Calif.).

[4] = target: T3, Recombinant BTK^C481S kinase (Homo sapiens, UniProt Q06187, C481S); test: BTK C481S binding affinity (LanthaScreen TR-FRET); conditions: Kinase Tracer 236, 5 h incubation
T3 construct: purchased SignalChem
T3 sequence (Q06187 whole entry C481S): as the sequence (Q06187 whole entry) above, with C481S counted along it
Description: BTK^C481S binding affinity of each compound tested was determined using a time-resolved fluorescence resonance energy transfer (TR-FRET) methodology. 5 nM Recombinant BTK^WT kinase, varying concentrations of inhibitor, 2 nM LanthaScreen™ Eu anti-His Antibody and 30 nM Kinase Tracer 236 was incubated in 1× LanthaScreen™ Kinase Buffer A for 5 h. Recombinant BTK^C481S kinase was purchased from SignalChem and all LanthaScreen™ components were purchased from Invitrogen. Measurements were performed in a reaction volume of 30 μL using half-area 96-well assay plates. The TR-FRET signal was read on a plate reader with an excitation wavelength of 340 nm and detection wavelengths of 615 and 665 nm. Binding affinity was determined for each compound by measuring TR-FRET signal at various concentrations of compound and plotting the relative fluorescence units against the inhibitor concentration to estimate the IC50 from log[Inhibitor] vs response using the Variable Slope model in Graphpad prism from Graphpad software (San Diego, Calif.).

T1 sequence (P00533 25-1210): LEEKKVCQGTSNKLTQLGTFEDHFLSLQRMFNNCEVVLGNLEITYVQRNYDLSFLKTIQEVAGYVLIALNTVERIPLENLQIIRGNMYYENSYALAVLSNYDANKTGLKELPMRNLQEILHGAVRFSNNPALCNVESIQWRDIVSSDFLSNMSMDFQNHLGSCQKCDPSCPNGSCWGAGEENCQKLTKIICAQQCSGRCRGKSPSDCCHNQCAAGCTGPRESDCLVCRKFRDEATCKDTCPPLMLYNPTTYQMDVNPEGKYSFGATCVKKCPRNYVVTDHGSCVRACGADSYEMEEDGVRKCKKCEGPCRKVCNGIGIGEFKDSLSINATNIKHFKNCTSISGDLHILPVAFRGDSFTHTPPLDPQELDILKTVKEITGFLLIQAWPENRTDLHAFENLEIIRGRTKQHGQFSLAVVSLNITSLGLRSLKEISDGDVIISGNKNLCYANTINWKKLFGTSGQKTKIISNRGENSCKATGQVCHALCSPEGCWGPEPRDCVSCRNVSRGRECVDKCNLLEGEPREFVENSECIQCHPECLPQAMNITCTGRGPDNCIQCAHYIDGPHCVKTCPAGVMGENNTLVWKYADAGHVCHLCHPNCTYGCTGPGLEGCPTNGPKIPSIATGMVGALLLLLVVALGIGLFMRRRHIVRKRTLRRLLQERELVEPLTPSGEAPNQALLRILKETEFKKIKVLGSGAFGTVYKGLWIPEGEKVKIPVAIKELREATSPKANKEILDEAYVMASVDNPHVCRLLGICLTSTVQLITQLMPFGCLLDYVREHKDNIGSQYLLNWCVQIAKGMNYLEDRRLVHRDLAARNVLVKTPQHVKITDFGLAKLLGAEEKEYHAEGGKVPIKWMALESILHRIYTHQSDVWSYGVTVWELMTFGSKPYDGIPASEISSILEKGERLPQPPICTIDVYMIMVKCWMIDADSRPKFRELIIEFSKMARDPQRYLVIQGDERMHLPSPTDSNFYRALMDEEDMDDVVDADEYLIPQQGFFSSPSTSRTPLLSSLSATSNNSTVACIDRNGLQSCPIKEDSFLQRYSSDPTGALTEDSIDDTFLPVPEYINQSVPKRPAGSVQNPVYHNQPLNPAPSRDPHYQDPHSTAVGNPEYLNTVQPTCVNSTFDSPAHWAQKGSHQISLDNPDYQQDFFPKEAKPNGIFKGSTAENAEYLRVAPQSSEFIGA

COc1ccccc1C(=O)NCc1ccc(-c2nn([C@H]3CC[C@H](F)C3)c(N)c2C(N)=O)cc1 (relative stereo) [Example 41, 5-amino-1-[(1S*,3S*)-3-fluorocyclopentyl]-3-[4-[[(2-methoxybenzoyl)amino]methyl]phenyl]pyrazole-4-carboxamide]
IC50 [1]: 100 to 1000 nM | IC50 ([2]; Homo sapiens, OCI-Ly10, 72 h): 10 to 100 nM | IC50 [3]: < 10 nM | IC50 [4]: < 10 nM

COc1ccccc1C(=O)NCc1ccc(-c2nn([C@H]3CC[C@H](O)C3)c(N)c2C(N)=O)cc1 (relative stereo) [Example 46, 5-Amino-1-[(1S*,3S*)-3-hydroxycyclopentyl]-3-[4-[[(2-methoxybenzoyl)amino]methyl]phenyl]pyrazole-4-carboxamide]
IC50 [1]: 100 to 1000 nM | IC50 ([2]; Homo sapiens, OCI-Ly10, 72 h): 10 to 100 nM | IC50 [3]: < 10 nM | IC50 [4]: < 10 nM

COc1ccccc1C(=O)NCc1ccc(-c2nn([C@@H]3COC[C@H]3O)c(N)c2C(N)=O)cc1 (relative stereo) [Example 94, 5-amino-1-[trans-4-hydroxytetrahydrofuran-3-yl]-3-[4-[[(2-methoxybenzoyl)amino]methyl]phenyl]pyrazole-4-carboxamide]
IC50 [1]: 1000 to 10000 nM | IC50 ([2]; Homo sapiens, OCI-Ly10, 72 h): 1000 to 10000 nM | IC50 [3]: 10 to 100 nM | IC50 [4]: < 10 nM

COc1ccccc1C(=O)NCc1ccc(-c2nn(C3CCC(C)(O)CC3)c(N)c2C(N)=O)cc1 (single isomer, unassigned) [Example 33, 5-Amino-1-(4-hydroxy-4-methyl-cyclohexyl)-3-[4-[[(2-methoxybenzoyl)amino]methyl]phenyl]pyrazole-4-carboxamide]
IC50 [1]: 100 to 1000 nM | IC50 ([2]; Homo sapiens, OCI-Ly10, 72 h): 10 to 100 nM | IC50 [3]: < 10 nM | IC50 [4]: < 10 nM

COc1ccccc1C(=O)NCc1ccc(-c2nn(C3CCC(O)CC3)c(N)c2C(N)=O)cc1 (single isomer, unassigned) [Example 34a, 5-Amino-1-(4-hydroxycyclohexyl)-3-[4-[[(2-methoxybenzoyl)amino]methyl]phenyl]pyrazole-4-carboxamide]
IC50 [1]: 100 to 1000 nM | IC50 [2]: 10 to 100 nM | IC50 [3]: < 10 nM | IC50 [4]: < 10 nM

COc1ccccc1C(=O)NCc1ccc(-c2nn(C3CCC(O)CC3)c(N)c2C(N)=O)cc1 (single isomer, unassigned) [Example 34b, 5-Amino-1-(4-hydroxycyclohexyl)-3-[4-[[(2-methoxybenzoyl)amino]methyl]phenyl]pyrazole-4-carboxamide]
IC50 [1]: 1000 to 10000 nM | IC50 ([2]; Homo sapiens, OCI-Ly10, 72 h): 10 to 100 nM | IC50 [3]: < 10 nM | IC50 [4]: < 10 nM

CCOC(=O)C1CCCC(n2nc(-c3ccc(CNC(=O)c4ccccc4OC)cc3)c(C(N)=O)c2N)C1 (single isomer, unassigned) [Example 55, ethyl 3-[5-amino-4-carbamoyl-3-[4-[[(2-methoxybenzoyl)amino]methyl]phenyl]pyrazol-1-yl]cyclohexanecarboxylate]
IC50 [1]: 100 to 1000 nM | IC50 [2]: 10 to 100 nM | IC50 [3]: < 10 nM | IC50 [4]: < 10 nM

COc1ccccc1C(=O)NCc1ccc(-c2nn(C3CCC(C(=O)N(C)C)CC3)c(N)c2C(N)=O)cc1 (single isomer, unassigned) [Example 57a, 5-amino-1-[4-(dimethylcarbamoyl)cyclohexyl]-3-[4-[[(2-methoxybenzoyl)amino]methyl]phenyl]pyrazole-4-carboxamide]
IC50 [1]: 100 to 1000 nM | IC50 [2]: 10 to 100 nM | IC50 [3]: < 10 nM | IC50 [4]: < 10 nM

COc1ccccc1C(=O)NCc1ccc(-c2nn(C3CCC(C(=O)N(C)C)CC3)c(N)c2C(N)=O)cc1 (single isomer, unassigned) [Example 57b, 5-amino-1-[4-(dimethylcarbamoyl)cyclohexyl]-3-[4-[[(2-methoxybenzoyl)amino]methyl]phenyl]pyrazole-4-carboxamide]
IC50 [1]: 100 to 1000 nM | IC50 [2]: 100 to 1000 nM | IC50 [3]: < 10 nM | IC50 [4]: < 10 nM

CCOC(=O)C1CCCC(n2nc(-c3ccc(CNC(=O)c4ccccc4OC)cc3)c(C(N)=O)c2N)C1 (single isomer, unassigned) [Example 58, ethyl 3-[5-amino-4-carbamoyl-3-[4-[[(2-methoxybenzoyl)amino]methyl]phenyl]pyrazol-1-yl]cyclohexanecarboxylate]
IC50 [1]: 1000 to 10000 nM | IC50 ([2]; Homo sapiens, OCI-Ly10, 72 h): 10 to 100 nM | IC50 [3]: < 10 nM | IC50 [4]: < 10 nM

COc1ccccc1C(=O)NCc1ccc(-c2nn(C3CCCC(C(=O)N(C)C)C3)c(N)c2C(N)=O)cc1 (single isomer, unassigned) [Example 70, 5-amino-1-[3-(dimethylcarbamoyl)cyclohexyl]-3-[4-[[(2-methoxybenzoyl)amino]methyl]phenyl]pyrazole-4-carboxamide]
IC50 [1]: 100 to 1000 nM | IC50 ([2]; Homo sapiens, OCI-Ly10, 72 h): 10 to 100 nM | IC50 [3]: < 10 nM | IC50 [4]: < 10 nM

COc1ccccc1C(=O)NCc1ccc(-c2nn(C3CCOC3C)c(N)c2C(N)=O)cc1 (single isomer, unassigned) [Example 77, 5-amino-3-[4-[[(2-methoxybenzoyl)amino]methyl]phenyl]-1-[2-methyltetrahydrofuran-3-yl]pyrazole-4-carboxamide]
IC50 [1]: 100 to 1000 nM | IC50 [2]: 10 to 100 nM | IC50 [3]: < 10 nM | IC50 [4]: < 10 nM

COc1ccccc1C(=O)NCc1ccc(-c2nn(C3CCOC3C)c(N)c2C(N)=O)cc1 (single isomer, unassigned) [Example 84, 5-amino-3-[4-[[(2-methoxybenzoyl)amino]methyl]phenyl]-1-[2-methyltetrahydrofuran-3-yl]pyrazole-4-carboxamide]
IC50 [1]: 1000 to 10000 nM | IC50 [2]: 1000 to 10000 nM | IC50 [3]: 10 to 100 nM | IC50 [4]: < 10 nM

COc1ccccc1C(=O)NCc1ccc(-c2nn(C3CCOCC3F)c(N)c2C(N)=O)cc1 (single isomer, unassigned) [Example 95, 5-amino-1-[3-fluorotetrahydropyran-4-yl]-3-[4-[[(2-methoxybenzoyl)amino]methyl]phenyl]pyrazole-4-carboxamide]
IC50 [1]: 1000 to 10000 nM | IC50 [2]: 100 to 1000 nM | IC50 [3]: 10 to 100 nM | IC50 [4]: < 10 nM

COc1ccccc1C(=O)NCc1ccc(-c2nn(C3CCOCC3F)c(N)c2C(N)=O)cc1 (single isomer, unassigned) [Example 96, 5-amino-1-[3-fluorotetrahydropyran-4-yl]-3-[4-[[(2-methoxybenzoyl)amino]methyl]phenyl]pyrazole-4-carboxamide]
IC50 [1]: 1000 to 10000 nM | IC50 [2]: 10 to 100 nM | IC50 [3]: < 10 nM | IC50 [4]: < 10 nM

COc1ccc(F)cc1C(=O)NCc1ccc(-c2nn([C@H](C)C(F)(F)F)c(N)c2C(N)=O)cc1 (single isomer, unassigned) [Example 163a, 5-amino-3-[4-[[(5-fluoro-2-methoxy-benzoyl)amino]methyl]phenyl]-1-(2,2,2-trifluoro-1-methyl-ethyl)pyrazole-4-carboxamide]
IC50 [1]: 1000 to 10000 nM | IC50 [2]: < 10 nM | IC50 [3]: < 10 nM | IC50 [4]: < 10 nM

COc1ccc(F)cc1C(=O)NCc1ccc(-c2nn([C@H](C)C(F)(F)F)c(N)c2C(N)=O)cc1 (single isomer, unassigned) [Example 163b, 5-amino-3-[4-[[(5-fluoro-2-methoxy-benzoyl)amino]methyl]phenyl]-1-(2,2,2-trifluoro-1-methyl-ethyl)pyrazole-4-carboxamide]
IC50 [1]: 1000 to 10000 nM | IC50 ([2]; Homo sapiens, OCI-Ly10, 72 h): 10 to 100 nM | IC50 [3]: < 10 nM | IC50 [4]: < 10 nM
